Where two headings read alike, the source gives them in different places.
Experiments:
[1] = tested on: Escherichia coli; assay: Disc diffusion antimicrobial susceptibility test, Escherichia coli; format: cell-based; parameters: key to Inhibition diameter: -: no growth of the organism
Description: (§1) The plates were incubated for 24 h at 37 °C.

[2] = DTG; cited from earlier work
[3] = tested on: Micrococcus Luteus; assay: Disc diffusion antimicrobial susceptibility test, Micrococcus luteus; format: cell-based; parameters: key to Inhibition diameter: -: no growth of the organism; settings: for zone of inhibition at 25000 µg/mL / zone of inhibition at 50000 µg/mL / zone of inhibition at 100000 µg/mL / zone of inhibition at 200000 µg/mL / zone of inhibition at 400000 µg/mL / zone of inhibition at 600000 µg/mL / zone of inhibition at 800000 µg/mL: Micrococcus luteus, 24 h, read-out: Inhibition diameter
[4] = pKa / pKB by potentiometric acid-base titration and formation constant log(KS); settings: calculated from pKA of acid and pKB of base
Description: Determination of formation constant pKs
Zabrze, Poland). For the measurement of pKA acids, 0.1 M NaOH was used. In order to
ester hydrochloride, HCl aqueous solution, was added in an amount that allowed reach-
After that, an acid-base titration was made out by adding dropwise 5 mM

[5] = tested on: Staphylococcus epidermidis; assay: Disc diffusion antimicrobial susceptibility test, Staphylococcus epidermidis; format: cell-based; parameters: key to Inhibition diameter: -: no growth of the organism
Description: as §1

[6] = Thermogravimetric analysis (thermal stability); settings: for TDTGmax, maximum decomposition temperature: DTG, air atmosphere, 10 °C min−1
Description: The thermal stabilities of the obtained NSAIDs isopropyl ester amino acid salts were investigated. […] The beginning of thermal degradation was evaluated based on the value of onset of the TG curve, which occurs in the first phase of the process. […]
Thermogravimetric analysis (TG)
Thermogravimetric analysis was carried out using Netzsch Proteus Thermal Analy- […]
Samples of 5–8 mg were loaded in Al2O3 […]
ment was performed in an air atmosphere (25 cm3min−1) with nitrogen flow (10 cm3min−1) […]
Differential scanning calorimetry (DSC)
Phase transformation temperatures were determined on a PerkinElmer DSC-7 (Rot-gau, Germany). The samples of 3–5 mg were loaded on the aluminum pan with a crimped lid. Measurements were carried out in a nitrogen atmosphere (20 cm3 min-1). The rate of heating/cooling was 5°C min-1. […]
tained for 30 min inside the furnace, then cooled to 0°C to condition the sample and the crucible. After that, heating was conducted to the specified temperature, followed by cool-ing. Unless otherwise stated, two complete cycles of heating and cooling were performed.
The specified maximum temperature was individual for each compound, determined from TG analysis, and it was at least 10°C lower than the onset decomposition tempera-ture. Temperatures reported from DSC data are curve peaks, the melting points being endothermic upon heating and crystallization point being exothermic upon cooling. Lead, indium, tin, and zinc were used as standards to calibrate the temperature. Indium was used for enthalpy measurement calibration. […]

[7] = solution transferred to disc 25 mg cm^−3
[8] = solution transferred to disc 50 mg cm^−3
[9] = solution transferred to disc 100 mg cm^−3
[10] = solution transferred to disc 200 mg cm^−3
[11] = solution transferred to disc 400 mg cm^−3
[12] = solution transferred to disc 600 mg cm^−3
[13] = solution transferred to disc 1000 mg cm^−3
[14] = solution transferred to disc 800 mg cm^−3

Structure (SMILES)	Inhibition diameter [1, 7]	Inhibition diameter [1, 8]	Inhibition diameter [1, 9]	Inhibition diameter [1, 10]	Inhibition diameter [1, 11]	Inhibition diameter [1, 12]	Inhibition diameter [1, 13]	Inhibition diameter [3, 7]	Inhibition diameter [3, 8]	Inhibition diameter [3, 9]	Inhibition diameter [5, 7]	Inhibition diameter [5, 8]	Inhibition diameter [5, 9]	Inhibition diameter [5, 10]	Inhibition diameter [5, 11]	Inhibition diameter [5, 12]	Inhibition diameter [5, 14]	Inhibition diameter [5, 13]	TTGonset, the onset of the thermal degradation [6] [°C]	TDTGmax, maximum decomposition temperature [6] [°C]	further results
CC(C)OC(=O)[C@@H](N)C(C)C.COc1ccc2cc([C@H](C)C(=O)O)ccc2c1 [[L-ValOiPr][NAP]]	-	-	-	-	-	-	-	6.2 ± 0.1 mm	6.3 ± 0.1 mm	6.4 ± 0.1 mm	-	-	-	-	-	-	6.6 ± 0.3 mm	7.4 ± 0.1 mm			TDTGmax, maximum decomposition temperature [2]: 275.8 [48] °C; Inhibition diameter [3, 10]: 7.2 ± 0.1 mm; Inhibition diameter [3, 11]: 7.3 ± 0.1 mm; Inhibition diameter [3, 12]: 7.4 ± 0.2 mm; Inhibition diameter [3, 14]: 8.2 ± 0.2 mm; Inhibition diameter [3, 13]: 8.6 ± 0.2 mm; Log(KS) formation constant [4]: 5.89
CC(C)Cc1ccc(C(C)C(=O)O)cc1 (racemic) [IBU, (R,S)-ibuprofen, reference compound]	-	-	-	-	-	-	-												186.2	218.8	zone of inhibition at 25000 µg/mL [3, 7]: 8.6 ± 0.3 mm; zone of inhibition at 50000 µg/mL [3, 8]: 9.4 ± 0.2 mm; zone of inhibition at 100000 µg/mL [3, 9]: 9.7 ± 0.2 mm; zone of inhibition at 200000 µg/mL [3, 10]: 10.2 ± 0.1 mm; zone of inhibition at 400000 µg/mL [3, 11]: 10.6 ± 0.1 mm; zone of inhibition at 600000 µg/mL [3, 12]: 11.5 ± 0.2 mm; zone of inhibition at 800000 µg/mL [3, 14]: 12.7 ± 0.2 mm; zone of inhibition at 25000 µg/mL ([5]; Staphylococcus epidermidis, 24 h, solution transferred to disc 25 mg cm^−3, read-out: Inhibition diameter): 10.8 ± 0.3 mm; zone of inhibition at 50000 µg/mL ([5]; Staphylococcus epidermidis, 24 h, solution transferred to disc 50 mg cm^−3, read-out: Inhibition diameter): 11.5 ± 0.3 mm; zone of inhibition at 100000 µg/mL ([5]; Staphylococcus epidermidis, 24 h, solution transferred to disc 100 mg cm^−3, read-out: Inhibition diameter): 14.9 ± 0.3 mm; zone of inhibition at 200000 µg/mL ([5]; Staphylococcus epidermidis, 24 h, solution transferred to disc 200 mg cm^−3, read-out: Inhibition diameter): 15.3 ± 0.3 mm; zone of inhibition at 400000 µg/mL ([5]; Staphylococcus epidermidis, 24 h, solution transferred to disc 400 mg cm^−3, read-out: Inhibition diameter): 16.4 ± 0.2 mm; zone of inhibition at 600000 µg/mL ([5]; Staphylococcus epidermidis, 24 h, solution transferred to disc 600 mg cm^−3, read-out: Inhibition diameter): 17.6 ± 0.2 mm; zone of inhibition at 800000 µg/mL ([5]; Staphylococcus epidermidis, 24 h, solution transferred to disc 800 mg cm^−3, read-out: Inhibition diameter): 18.6 ± 0.2 mm
COc1ccc2cc([C@H](C)C(=O)O)ccc2c1 [NAP, S-(+)-naproxen, reference compound]	-	-	-	-	-	-	-				-	-	-	-	-	-	-	-	224.5	284.0	zone of inhibition at 25000 µg/mL [3, 7]: 6.2 ± 0.1 mm; zone of inhibition at 50000 µg/mL [3, 8]: 6.4 ± 0.1 mm; zone of inhibition at 100000 µg/mL [3, 9]: 6.7 ± 0.1 mm; zone of inhibition at 200000 µg/mL [3, 10]: 6.8 ± 0.1 mm; zone of inhibition at 400000 µg/mL [3, 11]: 7.3 ± 0.2 mm; zone of inhibition at 600000 µg/mL [3, 12]: 7.6 ± 0.2 mm; zone of inhibition at 800000 µg/mL [3, 14]: 8.5 ± 0.2 mm
CC[C@H](C)[C@H](N)C(=O)OC(C)C.COc1ccc2cc([C@H](C)C(=O)O)ccc2c1 [[L-IleOiPr][NAP], L-isoleucine isopropyl ester naproxenate]	-	-	-	-	-	-	-	6.4 ± 0.1 mm	6.7 ± 0.1 mm	7.0 ± 0.1 mm	-	-	-	-	-	12.0 ± 0.3 mm	12.4 ± 0.2 mm	13.5 ± 0.3 mm	127.0	287.4	Inhibition diameter [3, 10]: 7.3 ± 0.1 mm; Inhibition diameter [3, 11]: 7.5 ± 0.2 mm; Inhibition diameter [3, 12]: 8.1 ± 0.6 mm; Inhibition diameter [3, 14]: 8.7 ± 0.1 mm; Inhibition diameter [3, 13]: 9.5 ± 0.1 mm; Log(KS) formation constant [4]: 6.11
COc1ccc2cc([C@H](C)C(=O)O)ccc2c1.CSCC[C@H](N)C(=O)OC(C)C [[L-MetOiPr][NAP], L-methionine isopropyl ester naproxenate]	-	-	-	6.4 ± 0.3 mm	7.1 ± 0.1 mm	7.3 ± 0.2 mm	7.7 ± 0.2 mm	-	-	-	-	-	-	-	-	-	-	7.5 ± 0.3 mm	149.6	293.2	Inhibition diameter [3, 10]: -; Inhibition diameter [3, 11]: 6.4 ± 0.1 mm; Inhibition diameter [3, 12]: 7.1 ± 0.2 mm; Inhibition diameter [3, 14]: 7.5 ± 0.1 mm; Inhibition diameter [3, 13]: 7.8 ± 0.2 mm
